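Results reflect a 48-hour exposure of cells in 96-well plates to compound at five concentrations. GI50 marks 50% less growth. At the TGI there is no net growth.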
Columns and labels:
Experiment in all cases: NCI-60 cell line screen, 48 h
[1] = test system: DLD-1 colon
[2] = test system: RXF-631 renal
[3] = test system: XF 498 CNS
[4] = test system: HOP-18 NSCLC
[5] = test system: MDA-N
[6] = test system: LXFL 529 NSCLC
[7] = test system: KM20L2 colon
[8] = test system: SNB-78 CNS
[9] = test system: M19-MEL melanoma

| Structure (SMILES) | TGI [1] | TGI [2] | TGI [3] | TGI [4] | TGI [5] | TGI [6] | TGI [7] | TGI [8] | TGI [9] | GI50 [5] | GI50 [1] | GI50 [6] | GI50 [7] | GI50 [8] |
| --- | --- | --- | --- | --- | --- | --- | --- | --- | --- | --- | --- | --- | --- | --- |
| CC(=O)O[C@H]1C(=O)[C@@]2(C)C(C(OC(=O)c3ccccc3)[C@]3(O)C[C@H](OC(=O)C(OC(=O)CCCC(=O)NCCCN(C)C)C(NC(=O)c4ccccc4)c4ccccc4)C(C)=C1C3(C)C)C1(OC(C)=O)COC1C[C@@H]2O (stereo not given in full) | > 40.9 µM | > 100 µM | < 0.0171 µM | 35 µM | < 0.01 µM | 20.9 µM | < 0.01 µM | 96.8 µM | 17.3 µM |  |  |  |  |  |
| CN(C)C=Nc1ccn(CCO)c(=O)n1 | > 100 µM | > 100 µM |  | > 100 µM |  | > 100 µM | > 100 µM | > 100 µM | > 100 µM |  |  |  |  |  |
| Cn1cc(C(=O)c2ccccc2)c2ccccc2c1=O | > 100 µM |  | > 100 µM |  |  | > 100 µM |  |  | > 100 µM |  |  |  |  |  |
| COc1cc(Nc2nc3cc(N)cc(N)c3nc2-c2ccccc2)cc(OC)c1OC |  |  |  |  | 31.3 µM |  |  |  |  | 10.5 µM |  |  |  |  |
| Nc1ncnc2c1ncn2[C@]1(CO)C=C(CO)C(O)C1O (stereo not given in full) | > 100 µM | > 100 µM | > 100 µM | > 100 µM |  | > 100 µM | > 100 µM | > 100 µM |  |  |  |  |  |  |
| COc1ccc(C2=C(Cl)c3cc(OC)c(OC)cc3C2OC)cc1OC (stereo not given) | 41.8 µM |  | > 100 µM | > 100 µM |  | > 100 µM | > 100 µM | > 100 µM | > 100 µM |  |  |  |  |  |
| Cn1c2c(c3ccccc31)CCN(CCCCN1CCCCC1)C2=O | > 100 µM | > 100 µM | > 100 µM | > 100 µM |  | > 100 µM | > 100 µM | > 100 µM | > 100 µM |  |  |  |  |  |
| COc1cc2c(cc1OC)[C@@H](Nc1ccc(C#N)cc1)C1COC(=O)[C@@H]1C2c1cc(OC)c(O)c(OC)c1 (stereo not given in full) | 9.29 µM |  |  | 95 µM | > 100 µM | 95 µM | 95 µM | 95 µM | 95 µM |  |  |  |  |  |
| c1cc(NNc2cccc(-c3nn[nH]n3)c2)cc(-c2nn[nH]n2)c1 |  |  |  |  | > 100 µM |  |  |  |  |  |  |  |  |  |
| COc1ccc2c(c1OC)C[C@@H]1c3c(cc4c(c3-2)OCO4)CCN1C |  |  |  |  | > 100 µM |  |  |  |  |  |  |  |  |  |
| N#CCCN(c1ccc(C=Nc2ccccc2)cc1)S(=O)(=O)c1ccccc1 | > 100 µM |  | > 100 µM |  |  | > 100 µM |  | > 100 µM | > 100 µM |  |  |  |  |  |
| COC(=O)c1n[nH]c(C)c1N=NN(C)CCC#N |  |  |  |  | > 100 µM |  |  |  |  |  |  |  |  |  |
| O=C(NCCCCCCCCCCCCNC(=O)c1cccc2ccccc12)c1cccc2ccccc12 | > 100 µM | > 100 µM | > 75.8 µM | > 100 µM |  | > 100 µM | > 100 µM | > 82.3 µM | > 100 µM |  |  |  |  |  |
| CN(CCN1C(=O)c2cc([N+](=O)[O-])cc3cc([N+](=O)[O-])cc(c23)C1=O)CCN1C(=O)c2cc([N+](=O)[O-])cc3cc([N+](=O)[O-])cc(c23)C1=O | 18.8 µM |  | 23.1 µM | > 100 µM |  | 20.1 µM | > 33.5 µM | 5.91 µM | 4.4 µM |  |  |  |  |  |
| c1ccc([P+](CCSCCSCC[P+](c2ccccc2)(c2ccccc2)c2ccccc2)(c2ccccc2)c2ccccc2)cc1 |  |  |  |  | > 100 µM |  |  |  |  |  |  |  |  |  |
| CC1=Nc2ccccc2S/C1=C(/C)NNS(=O)(=O)c1ccc(C)cc1 |  | > 100 µM |  | > 100 µM |  | > 100 µM | > 100 µM | > 100 µM | > 100 µM |  |  |  |  |  |
| CN1C(=O)CCC1(O)C1C=CC=CC1 (stereo not given) | > 100 µM | > 100 µM | > 100 µM |  |  | > 100 µM | > 100 µM | > 100 µM | > 100 µM |  |  |  |  |  |
| COc1ccc(C/C(=N/O)C(=O)NCCc2cc(Br)c(OCCCN(C)C)c(Br)c2)cc1Br | 25.3 µM |  | 25.6 µM | 0.0986 µM |  | 29.7 µM | 40.6 µM | 68.4 µM | 33.8 µM |  |  |  |  |  |
| Cc1cc(NCCCCCCCCNc2cc(C)nc3cc(N)ccc23)c2ccc(N)cc2n1 | > 100 µM |  |  |  |  | 45.2 µM | 48.8 µM |  | 45.3 µM |  |  |  |  |  |
| COC(=O)CC(NC(=O)OCc1ccccc1)C(C(C)=O)C(=O)OCc1ccccc1 (stereo not given) | > 31.6 µM |  |  | > 31.6 µM |  | > 31.6 µM | > 31.6 µM | > 31.6 µM | > 31.6 µM |  |  |  |  |  |
| O=C1CSCc2sccc21 |  |  |  |  | > 100 µM |  |  |  |  |  |  |  |  |  |
| Cc1cn(C2CC(O)C(COC(=O)c3ccccc3)O2)c(=O)[nH]c1=O (stereo not given) | > 100 µM | > 100 µM | > 100 µM | > 100 µM |  | > 100 µM | > 100 µM | > 100 µM | > 100 µM |  |  |  |  |  |

| Structure (SMILES) | TGI [1] | TGI [2] | TGI [3] | TGI [4] | TGI [5] | TGI [6] | TGI [7] | TGI [8] | TGI [9] | GI50 [5] | GI50 [1] | GI50 [6] | GI50 [7] | GI50 [8] |
| --- | --- | --- | --- | --- | --- | --- | --- | --- | --- | --- | --- | --- | --- | --- |
| O=C1C2Nc3ccccc3SC2C(=O)N1c1ccc(Br)cc1 (stereo not given) | > 100 µM |  | > 100 µM |  |  | 82.1 µM | > 100 µM | 99.1 µM | > 100 µM |  |  |  |  |  |
| CC(=O)OCC1OC(n2cc(F)c(=O)[nH]c2=O)C(NC(=O)N(CCCl)N=O)C(OC(C)=O)C1OC(C)=O (stereo not given) | > 100 µM |  | > 100 µM | > 100 µM |  | > 100 µM | > 100 µM | > 100 µM | > 100 µM |  |  |  |  |  |
| CC(C)(CN1CCCCC1)C(=O)/C=C/c1ccc(/C=C/C(=O)C(C)(C)CN2CCCCC2)cc1 | 0.323 µM |  | 1.28 µM | 2.57 µM | 0.401 µM | 0.682 µM | 1.65 µM | 7.17 µM | 2.35 µM |  |  |  |  |  |
| O=C(/C=C/c1cc(Cl)cc(Cl)c1O)c1cccc(O)c1 | > 100 µM |  |  | > 100 µM |  | > 100 µM | > 100 µM | > 100 µM | 68.7 µM |  |  |  |  |  |
| COC(=O)CCC(NC(=S)N/N=C(\C)c1cnc2ccccc2n1)C(=O)OC (stereo not given) | > 100 µM | > 100 µM | > 100 µM | > 100 µM |  | > 100 µM | 46 µM | > 100 µM |  |  |  |  |  |  |
| CC1=CC(=O)C2=C(C)CCC3C(C)C(=O)OC3C12 (stereo not given) |  |  |  |  | > 100 µM |  |  |  |  |  |  |  |  |  |
| COC(=O)C(C(=O)C(=O)Nc1c(C)cccc1C)c1cnc2ccccc2n1 (stereo not given) |  | > 100 µM | > 100 µM | > 100 µM |  | > 100 µM | > 100 µM | > 100 µM |  |  |  |  |  |  |
| O=C(N/C(=C\c1ccc(Cl)cc1)c1nc2ccccc2[nH]1)c1ccccc1 | 52.2 µM |  | 36.9 µM | 50.3 µM |  | 38.6 µM | 30.8 µM | 85.4 µM | 34.7 µM |  |  |  |  |  |
| Cc1nc(-n2nc(-c3ccccc3)cc2-c2ccccc2)sc1C(=O)/C=C/c1ccc(/C=C/C(=O)c2sc(-n3nc(-c4ccccc4)cc3-c3ccccc3)nc2C)cc1 | 44.8 µM | 78.9 µM | 41.4 µM |  |  | 67.3 µM | 36.4 µM | 99.8 µM | 63 µM |  |  |  |  |  |
| COc1ccc(NC(=O)C(=O)c2c(O)c3ccc(O)cc3oc2=O)c([N+](=O)[O-])c1 | > 100 µM | > 100 µM |  |  |  | > 100 µM | > 100 µM |  | > 100 µM |  |  |  |  |  |
| CCC(C)CCOC(=O)c1ccc(N=Cc2ccc(C=Nc3ccc(C(=O)OCCC(C)CC)cc3)cc2)cc1 (stereo not given) | > 100 µM |  |  | > 100 µM |  | > 100 µM | > 100 µM | > 100 µM |  |  |  |  |  |  |
| CC(C)C1=CC(=O)C(C)(C2C(O)CC3(C)C4CC=C5C(CCC(OC6OC(CO)C(O)C(O)C6OC6OC(C)C(O)C(O)C6O)C5(C)C)C4(C)C(=O)CC23C)O1 (stereo not given) |  |  |  |  | > 100 µM |  |  |  |  |  |  |  |  |  |
| Cc1c(Cl)cccc1NC(=O)C(=O)C(C(=O)c1ccccc1-c1ccccc1)C1OC(=O)c2ccccc21 (stereo not given) | 49.1 µM | 71.6 µM | 29.3 µM |  |  | 27.9 µM | 51.4 µM | > 100 µM | 34.8 µM |  |  |  |  |  |
| O=C1NC(Cc2ccc(O)cc2)C(=O)N2CCCC12 (stereo not given) | > 100 µM | > 100 µM |  | > 100 µM |  | > 100 µM | > 100 µM | > 100 µM | > 100 µM |  |  |  |  |  |
| CCOC(=O)C1Cc2c(cc3c4c(cccc24)N(C(C)=O)C3)N(C)C1 (stereo not given) |  |  |  |  | 3.29 µM |  |  |  |  |  |  |  |  |  |
| COC(=O)C1CCc2c1c(=O)n1c([nH]c3ccccc31)c2C#N (stereo not given) | > 100 µM |  | > 100 µM | > 100 µM |  | > 100 µM | > 100 µM | > 100 µM | > 100 µM |  |  |  |  |  |
| CN1c2ccccc2N(C(=O)c2ccc([N+](=O)[O-])cc2)C(CC(=O)O)c2cccn21 (stereo not given) | > 100 µM |  | > 100 µM |  |  | > 100 µM | > 100 µM | > 100 µM | > 100 µM |  |  |  |  |  |
| N.N.N.N.N.[Co+3].[I-].[N-]=[N+]=[N-] | > 100 µM |  |  |  |  | > 100 µM | > 100 µM | > 100 µM |  |  | > 100 µM | > 100 µM | > 100 µM | > 100 µM |
| COc1ccc(/C=C(/C#N)C(N)=O)c(OC)c1 |  |  |  |  | 52.6 µM |  |  |  |  |  |  |  |  |  |
| CC(C)(Br)C(=O)N1CCN(C(c2ccccc2)c2ccccc2)CC1 |  |  |  |  | > 100 µM |  |  |  |  |  |  |  |  |  |
| Cc1ccc(S(=O)(=O)OCCn2cnc3nc(NC(=O)c4ccccc4)[nH]c(=O)c32)cc1 | > 100 µM |  |  | > 100 µM |  | > 100 µM | > 100 µM | > 100 µM | > 100 µM |  |  |  |  |  |
| CCCCCN(CCCCC)C(=O)[C@@H](CCC(=O)O)NC(=O)c1cc2ccccc2[nH]1 | > 100 µM |  | 71.3 µM |  |  | > 100 µM | > 100 µM | > 100 µM | 40.9 µM |  |  |  |  |  |

Source: PubChem BioAssay (NCI)
